In patent publication US20220168201A1, “USE OF DIANHYDROHEXITOL FOR PRESERVING COSMETIC PREPARATIONS” (ROQUETTE FRERES, priority 2019, published 2022):

Key:
Staphylococcus aureus = conditions: U.S. Pat. No. 9,295,626, col. 27, Table 2; cited from earlier work
Corynebacterium xerosis = assay: In-vitro effect on microbial strains: population count over 28 days, Corynebacterium xerosis; assay type: cell-based; conditions: for Number of colony-forming strains after: 24 h / Number of colony-forming strains after: 7 days / Number of colony-forming strains after: 14 days / Number of colony-forming strains after: 21 days / Number of colony-forming strains after: 28 days: inoculum 3.2 × 10^5, 22° C.
Protocol: (§1) The samples are prepared under sterile conditions and deposited in microplates (2-ml wells) with the concentrations hereunder. Two analysis controls were carried out: • a positive control corresponding to 0.5% Phenonip®; • a negative control consisting of 0.85% physiological saline solution. Samples and controls are contaminated with three bacterial strains, namely Staphylococcus epidermidis, Corynebacterium xerosis, and Propionobacterium acnes, at a rate of approximately […] to 4.15×10^5 colony-forming units per milliliter, denoted cfu/ml; and a fungal strain, namely Malassezia furfur, at a rate of approximately 1.50×104 to 3.80×10^4 cfu/ml. After contamination, the samples are carefully mixed by suction and discharge cycles in order to ensure a uniform distribution of the microorganism. The whole is incubated at 22° C. during 28 days. The microbial population is sampled and counted at 24 hours and 7, 14, 21 and 28 days for each microbial strain. The contaminated samples are collected and then deposited in serial dilutions in microtiter plates, in the presence of culture medium, which is a saline solution with 0.85% sodium chloride, and a dehydrogenase activity indicator reagent, which is 2,3,5-triphenyltetrazolium chloride (denoted TTC). The results are presented in the following pages with the variation of the microbial population over the 28 days of study, for the tested microbial strain. The measurements of microbial populations in the samples collected at each time, are carried out according to the following microtiter method, for one sample collection. In the 96 wells with a volume of 250 μL of a microtiter plate, 20 μL of the collected sample are diluted by a factor of 10 by dispersion in 180 μL of Letheen broth (Difco, ref. 268110) containing 1.5% of Tween 80 (Sigma, ref. […]) and TTC (Sigma, ref. […]). The microplate is incubated for 48 hours at 32.5° C., and the growth of the microorganisms is monitored by the color change, from colorless to red/pink. The highest reciprocal dilution indicating a growth makes it possible to determine the log number of each microorganism at each time. The measurements of microbial populations taken at each collection time are expressed as colony forming units/ml.

Candida albicans = conditions: U.S. Pat. No. 9,295,626, col. 27, Table 2; cited from earlier work
Aspergillus brasiliensis = conditions: U.S. Pat. No. 9,295,626, col. 27, Table 2; cited from earlier work
[1] = system: Staphylococcus epidermidis; assay: In-vitro effect on microbial strains: population count over 28 days, Staphylococcus epidermidis; assay type: cell-based; conditions: for Number of colony-forming strains after: 24 h / Number of colony-forming strains after: 7 days / Number of colony-forming strains after: 14 days / Number of colony-forming strains after: 21 days / Number of colony-forming strains after: 28 days: inoculum 1.43 × 10^5, 22° C.
Protocol: as §1

Malassezia furfur = assay: In-vitro effect on microbial strains: population count over 28 days, Malassezia furfur; assay type: cell-based; conditions: for Number of colony-forming strains after: 24 h / Number of colony-forming strains after: 7 days / Number of colony-forming strains after: 14 days / Number of colony-forming strains after: 21 days / Number of colony-forming strains after: 28 days: inoculum 1.5 × 10^4, 22° C.
Protocol: as §1

Propionobacterium acnes = assay: In-vitro effect on microbial strains: population count over 28 days, Propionobacterium acnes; assay type: cell-based; conditions: for Number of colony-forming strains after: 24 h / Number of colony-forming strains after: 7 days / Number of colony-forming strains after: 14 days / Number of colony-forming strains after: 21 days / Number of colony-forming strains after: 28 days: inoculum 3.98 × 10^5, 22° C.
Protocol: as §1

[2] = after 24 hours, the three doses tested (1%, 5%, 9%)
[3] = after 24 hours, doses 1%, 5%, 9%

O[C@@H]1CO[C@H]2[C@@H]1OC[C@@H]2O [isosorbide, 1,4-3,6-dianhydrosorbitol]
minimum inhibitory concentration (Staphylococcus aureus): 10% | reduction of the number of colony-forming strains (Corynebacterium xerosis; [2]): at least 3 log 10 | colony-forming strains observed (Corynebacterium xerosis; after 7 days): no more colony-forming strains | Number of colony-forming strains after: 24 h (Corynebacterium xerosis; isosorbide dose 1%): 4 × 10^2 colony forming units/ml | Number of colony-forming strains after: 7 days (Corynebacterium xerosis; isosorbide dose 1%): 0 colony forming units/ml | Number of colony-forming strains after: 14 days (Corynebacterium xerosis; isosorbide dose 1%): 0 colony forming units/ml | Number of colony-forming strains after: 21 days (Corynebacterium xerosis; isosorbide dose 1%): 0 colony forming units/ml | Number of colony-forming strains after: 28 days (Corynebacterium xerosis; isosorbide dose 1%): 0 colony forming units/ml | Number of colony-forming strains after: 24 h (Corynebacterium xerosis; isosorbide dose 5%): 1 × 10^2 colony forming units/ml | Number of colony-forming strains after: 7 days (Corynebacterium xerosis; isosorbide dose 5%): 0 colony forming units/ml | Number of colony-forming strains after: 14 days (Corynebacterium xerosis; isosorbide dose 5%): 0 colony forming units/ml | Number of colony-forming strains after: 21 days (Corynebacterium xerosis; isosorbide dose 5%): 0 colony forming units/ml | Number of colony-forming strains after: 28 days (Corynebacterium xerosis; isosorbide dose 5%): 0 colony forming units/ml | Number of colony-forming strains after: 7 days (Corynebacterium xerosis; isosorbide dose 9%): 0 colony forming units/ml | Number of colony-forming strains after: 14 days (Corynebacterium xerosis; isosorbide dose 9%): 0 colony forming units/ml | Number of colony-forming strains after: 21 days (Corynebacterium xerosis; isosorbide dose 9%): 0 colony forming units/ml | Number of colony-forming strains after: 28 days (Corynebacterium xerosis; isosorbide dose 9%): 0 colony forming units/ml | effect on the strain in words (Corynebacterium xerosis; summary of Table 3): moderate bactericide | minimum inhibitory concentration (Candida albicans): 10% | minimum inhibitory concentration (Aspergillus brasiliensis): 10% | reduction of the number of colony-forming strains [1, 2]: at least 2 log 10 | colony-forming strains observed ([1]; after 7 days): no more colony-forming strains | Number of colony-forming strains after: 24 h ([1]; isosorbide dose 1%): 4 × 10^3 colony forming units/ml | Number of colony-forming strains after: 7 days ([1]; isosorbide dose 1%): 0 colony forming units/ml | Number of colony-forming strains after: 14 days ([1]; isosorbide dose 1%): 0 colony forming units/ml | Number of colony-forming strains after: 21 days ([1]; isosorbide dose 1%): 0 colony forming units/ml | Number of colony-forming strains after: 28 days ([1]; isosorbide dose 1%): 0 colony forming units/ml | Number of colony-forming strains after: 24 h ([1]; isosorbide dose 5%): 1 × 10^3 colony forming units/ml | Number of colony-forming strains after: 7 days ([1]; isosorbide dose 5%): 0 colony forming units/ml | Number of colony-forming strains after: 14 days ([1]; isosorbide dose 5%): 0 colony forming units/ml | Number of colony-forming strains after: 21 days ([1]; isosorbide dose 5%): 0 colony forming units/ml | Number of colony-forming strains after: 28 days ([1]; isosorbide dose 5%): 0 colony forming units/ml | Number of colony-forming strains after: 24 h ([1]; isosorbide dose 9%): 7 × 10^2 colony forming units/ml | Number of colony-forming strains after: 7 days ([1]; isosorbide dose 9%): 0 colony forming units/ml | Number of colony-forming strains after: 14 days ([1]; isosorbide dose 9%): 0 colony forming units/ml | Number of colony-forming strains after: 21 days ([1]; isosorbide dose 9%): 0 colony forming units/ml | Number of colony-forming strains after: 28 days ([1]; isosorbide dose 9%): 0 colony forming units/ml | effect on the strain in words ([1]; summary of Table 4): weak bactericide | colony-forming strains observed (Malassezia furfur; [3]): no colony-forming strain is observed | Number of colony-forming strains after: 24 h (Malassezia furfur; isosorbide dose 1%): 0 colony forming units/ml | Number of colony-forming strains after: 7 days (Malassezia furfur; isosorbide dose 1%): 0 colony forming units/ml | Number of colony-forming strains after: 14 days (Malassezia furfur; isosorbide dose 1%): 0 colony forming units/ml | Number of colony-forming strains after: 21 days (Malassezia furfur; isosorbide dose 1%): 0 colony forming units/ml | Number of colony-forming strains after: 28 days (Malassezia furfur; isosorbide dose 1%): 0 colony forming units/ml | Number of colony-forming strains after: 24 h (Malassezia furfur; isosorbide dose 5%): 0 colony forming units/ml | Number of colony-forming strains after: 7 days (Malassezia furfur; isosorbide dose 5%): 0 colony forming units/ml | Number of colony-forming strains after: 14 days (Malassezia furfur; isosorbide dose 5%): 0 colony forming units/ml | Number of colony-forming strains after: 21 days (Malassezia furfur; isosorbide dose 5%): 0 colony forming units/ml | Number of colony-forming strains after: 28 days (Malassezia furfur; isosorbide dose 5%): 0 colony forming units/ml | Number of colony-forming strains after: 24 h (Malassezia furfur; isosorbide dose 9%): 0 colony forming units/ml | Number of colony-forming strains after: 7 days (Malassezia furfur; isosorbide dose 9%): 0 colony forming units/ml | Number of colony-forming strains after: 14 days (Malassezia furfur; isosorbide dose 9%): 0 colony forming units/ml | Number of colony-forming strains after: 21 days (Malassezia furfur; isosorbide dose 9%): 0 colony forming units/ml | Number of colony-forming strains after: 28 days (Malassezia furfur; isosorbide dose 9%): 0 colony forming units/ml | effect on the strain in words (Malassezia furfur; summary of Table 2): bactericide | colony-forming strains observed (Propionobacterium acnes; [3]): no colony-forming strain is observed | Number of colony-forming strains after: 24 h (Propionobacterium acnes; isosorbide dose 1%): 0 colony forming units/ml | Number of colony-forming strains after: 7 days (Propionobacterium acnes; isosorbide dose 1%): 0 colony forming units/ml | Number of colony-forming strains after: 14 days (Propionobacterium acnes; isosorbide dose 1%): 0 colony forming units/ml | Number of colony-forming strains after: 21 days (Propionobacterium acnes; isosorbide dose 1%): 0 colony forming units/ml | Number of colony-forming strains after: 28 days (Propionobacterium acnes; isosorbide dose 1%): 0 colony forming units/ml | Number of colony-forming strains after: 24 h (Propionobacterium acnes; isosorbide dose 5%): 0 colony forming units/ml | Number of colony-forming strains after: 7 days (Propionobacterium acnes; isosorbide dose 5%): 0 colony forming units/ml | Number of colony-forming strains after: 14 days (Propionobacterium acnes; isosorbide dose 5%): 0 colony forming units/ml | Number of colony-forming strains after: 21 days (Propionobacterium acnes; isosorbide dose 5%): 0 colony forming units/ml | Number of colony-forming strains after: 28 days (Propionobacterium acnes; isosorbide dose 5%): 0 colony forming units/ml | Number of colony-forming strains after: 24 h (Propionobacterium acnes; isosorbide dose 9%): 0 colony forming units/ml | Number of colony-forming strains after: 7 days (Propionobacterium acnes; isosorbide dose 9%): 0 colony forming units/ml | Number of colony-forming strains after: 14 days (Propionobacterium acnes; isosorbide dose 9%): 0 colony forming units/ml | Number of colony-forming strains after: 21 days (Propionobacterium acnes; isosorbide dose 9%): 0 colony forming units/ml | Number of colony-forming strains after: 28 days (Propionobacterium acnes; isosorbide dose 9%): 0 colony forming units/ml | effect on the strain in words (Propionobacterium acnes; summary of Table 1): bactericide
